Experiment: in vitro
Details: human, hela cells
[1] = % viability, bulk resorufin, single well

SMILES | viability at 28.5 h, 10 µM (% viability) | other results
CN1CCCN(c2ccc(NS(=O)(=O)c3ccc(F)cc3F)c3ccccc23)CC1 [CBK001499C] | 64.8% | –
CCC1CNCCN1c1nccnc1OCCOc1cccnc1 (centres unmarked) [CBK001559F] | 121% | –
COC(=O)c1cccc2c(C)c(C)[nH]c12 [CBK001563] | 97.4% | –
C[C@@H]1CN(Cc2ccccc2)C[C@H](C)N1 [CBK001569] | 86.1% | –
CCCCN(CCCC)c1nccnc1Cl [CBK001576] | 94.7% | –
Cc1ccc2oc([C@H]3CN(C(=O)C4CCN(C(=O)OC(C)(C)C)CC4)C[C@@H]3C(=O)O)cc2c1 [CBK001601] | 90.7% | –
CC(=O)N1CCc2ccc(S(=O)(=O)n3ccc4c(N5CCNCC5)cccc43)cc2C1 [CBK001632C] | 101% | –
COC(=O)c1cccc2c1[nH]c1ccccc12 [CBK001709] | 99.9% | –
NC(=O)c1cccc(COc2ccccc2C(=O)Nc2ccc(-c3ccsc3)cc2C(=O)O)c1 [CBK001718] | 82.6% | –
OCc1ccnc2ccccc12 [CBK001746] | 87.4% | –
OCCOc1cccc2cccnc12 [CBK001784] | 104% | –
OCCOc1nc2ccccc2s1 [CBK001812] | 97.2% | –
c1cncc(OCCOc2nsnc2N2CCNCC2)c1 [CBK001825G] | 94.4% | –
c1cnc(N2CCNCC2)c(OC2CCCCC2)n1 [CBK001837C] | 92.7% | –
CCCOc1nccnc1N1CCNCC1 [CBK001839G] | 82.4% | –
Cc1cc(N2CCN(C(=O)OC(C)(C)C)CC2)nc(N)n1 [CBK001843] | 110% | –
c1cc(CNCCN2CCOCC2)cs1 [CBK001894] | 105% | –
CCOc1nccnc1N1CCNCC1 [CBK001899G] | 93.1% | –
CCCCCOc1nccnc1N1CCNCC1 [CBK001901G] | 103% | –
COCCOc1nccnc1N1CCNCC1 [CBK001903G] | 103% | –
CNC(=O)N1CC(=O)N(Cc2cccc(Cl)c2)C1=O [CBK001918] | 104% | –
Cc1ccc(S(=O)(=O)n2nncc2C)cc1 [CBK001921] | 111% | –
COc1ccc(-c2oc(C(=O)N(C)C)c(C(=O)O)c2-c2ccc(OC)cc2)cc1 [CBK001958] | 90.5% | –
OCCOc1ccccc1-c1nnco1 [CBK001972] | 92.6% | –

SMILES | viability at 28.5 h, 10 µM (% viability) | other results
O=S(=O)(c1ccccc1)n1ccc2c(Br)cccc21 [CBK002084] | 113% | –
CC(C)(C)OC(=O)N1CCN(c2ccnc(Cl)n2)CC1 [CBK002095] | 120% | –
COc1ccccc1N1CCN(C(=O)N(CCN)CCC(C)c2ccccc2)CC1 (centres unmarked) [CBK002137C] | 88.7% | –
N#CC(CCCN1CCC(O)(c2ccccc2)CC1)(c1ccccc1)c1ccccc1 [CBK002145] | – | viability at 28.5 h, 10 µM: 105%
O=C(CSc1ccccc1)c1ccccc1 [CBK002224] | 97.4% | –
CCOC(=O)c1c(-c2ccc(OC)cc2)noc1C(O)c1ccccc1 (centres unmarked) [CBK002296] | 90.6% | –
Oc1cc(C(F)(F)F)nc(SCc2ccc(Cl)cc2)n1 [CBK002305] | 106% | –
CC(CCN(CCN)C(=O)N1CCC(CNS(C)(=O)=O)(c2ccccc2)CC1)c1ccccc1 (centres unmarked) [CBK002335C] | 82.9% | –
Oc1cc(C(F)(F)F)nc(N2CCCC2)n1 [CBK002389] | 105% | –
Oc1cc(C(F)(F)F)nc(NCc2ccc(-c3ccccc3)cc2)n1 [CBK002395] | 105% | –
Cc1cccc(CN(CC(C)(C)CN)C(=O)Nc2ccccc2C(F)(F)F)n1 [CBK002409C] | 105% | –
COc1ccc(F)c(CN(CC(C)(C)CN)C(=O)Nc2ccccc2C(F)(F)F)c1 [CBK002412C] | 90.1% | –
Cc1ccc(NC(=O)N(Cc2ccccc2Br)CC(C)(C)CN)cc1[N+](=O)[O-] [CBK002436C] | 111% | –
Cc1ccc(NC(=O)N(Cc2ccc(-c3ccccc3)cc2)CC(C)(C)CN)cc1[N+](=O)[O-] [CBK002439C] | 83.7% | –
Cc1cccc(CN(CC(C)(C)CN)C(=O)Nc2ccc(-c3ccccc3)cc2)n1 [CBK002453C] | 86.7% | –
CC(C)(CN)CN(Cc1ccccc1Br)C(=O)NCc1ccc(F)cc1 [CBK002469C] | 92.9% | –
COc1ccccc1CN(CC(C)(C)CN)C(=O)NCc1ccc(F)cc1 [CBK002470C] | 87% | –
CC(C)(CN)CN(Cc1ccccc1C(F)(F)F)C(=O)NCc1ccc(F)cc1 [CBK002471C] | 87.8% | –
CC(C)(CN)CN(Cc1cccc(Cl)c1)C(=O)Nc1ccc2c(c1)OCO2 [CBK002482C] | 107% | –
Fc1ccccc1Oc1nnnn1-c1ccccc1 [CBK002526] | 98.2% | –
COc1cc(C#N)ccc1Oc1ccc([N+](=O)[O-])cc1C(F)(F)F [CBK002544] | 104% | –
COc1cc(C#N)ccc1Oc1ccc([N+](=O)[O-])cn1 [CBK002569] | 108% | –
COc1cc(C#N)ccc1OCc1ccccc1 [CBK002577] | 62% | –
COc1cc(C#N)ccc1OCc1cc(C)on1 [CBK002581] | 86.1% | –

SMILES | viability at 28.5 h, 10 µM (% viability) | other results
COc1cc(C#N)ccc1OCc1ccc2nc(C(F)(F)F)cc(Cl)c2c1 [CBK002589] | 98.3% | –
O=[N+]([O-])c1ccc(Oc2cccc(Cl)c2Cl)c(C(F)(F)F)c1 [CBK002594] | 82.8% | –
O=[N+]([O-])c1cc(F)ccc1Oc1cccc(Cl)c1Cl [CBK002604] | 112% | –
N#Cc1ccc(COc2cccc(Cl)c2Cl)cc1 [CBK002611] | 92.5% | –
Cc1cc(CSc2cccs2)no1 [CBK002635] | 91.8% | –
N#Cc1ccccc1-c1ccc(CSc2cccs2)cc1 [CBK002638] | 90.5% | –
Clc1ccc(COc2cccc3cccnc23)cn1 [CBK002718] | 93.2% | –
O=[N+]([O-])c1ccc(Oc2cccc3cccnc23)c(F)c1 [CBK002750] | 60.4% | –
O=[N+]([O-])c1cccnc1Oc1cccc2cccnc12 [CBK002760] | 97.4% | –
COc1ccccc1OCc1ccc(Cl)s1 [CBK002782] | 82.7% | –
FC(F)(F)c1cccc(Oc2nnnn2-c2ccccc2)c1 [CBK002798] | 92.6% | –
N#Cc1ccc(Oc2cccc(C(F)(F)F)c2)c(F)c1 [CBK002801] | 88.3% | –
COc1ccccc1OCc1ccccc1 [CBK002814] | 105% | –
Cc1ccc(Oc2ccc([N+](=O)[O-])cc2F)c(Br)c1 [CBK002821] | 90.3% | –
Cc1ccc(Oc2nnnn2-c2ccccc2)c(Br)c1 [CBK002827] | 106% | –
Cc1ccc(OCc2cc(C)on2)c(Br)c1 [CBK002837] | 109% | –
COc1ccccc1Oc1ccc(C(F)(F)F)cc1[N+](=O)[O-] [CBK002845] | 99% | –
COc1ccccc1Oc1ccc([N+](=O)[O-])cc1F [CBK002850] | 90.8% | –
O=C(O)[C@@H]1CCCN1c1nc(O)cc(C(F)(F)F)n1 [CBK002865] | 81.3% | –
Fc1cccc(SCc2ccccc2)c1 [CBK002912] | 117% | –
Cc1cc(=O)oc2cc(Sc3sccc3[N+](=O)[O-])ccc12 [CBK002936] | 90.5% | –
Cc1nn(C)c(Sc2ccccc2)c1[N+](=O)[O-] [CBK002937] | 97.9% | –
Cc1cc(=O)oc2cc(Sc3ccc([N+](=O)[O-])cc3)ccc12 [CBK002954] | 95.7% | –
CN1CCN(c2nc(NS(=O)(=O)c3ccc(OC(F)(F)F)cc3)cc3ccccc23)CC1 [CBK002978C] | 87.7% | –

SMILES | viability at 28.5 h, 10 µM (% viability) | other results
NCCC(=O)N(CCc1cc(C(F)(F)F)cc(C(F)(F)F)c1)c1ccc(Oc2ccccc2)cc1 [CBK002998T] | 97.7% | –
OC(CNCCc1ccccc1)COc1c(Br)cccc1Br (centres unmarked) [CBK003071] | 94% | –
Cc1cccc(Cl)c1OCC(O)CNCCc1ccccc1 (centres unmarked) [CBK003076] | 102% | –
OC(COc1c(Br)cccc1Br)CN1CCCCC1 (centres unmarked) [CBK003077T] | 90.9% | –
CC(C)c1cccc(C(C)C)c1OCC(O)CN1CCCCC1 (centres unmarked) [CBK003079T] | 94.6% | –
O=[N+]([O-])c1ccc(CCNCC(O)COc2cccc3c2CCCC3)cc1 (centres unmarked) [CBK003083] | 88.6% | –
CC(C)(C)OC(=O)N1CCN(S(=O)(=O)c2ccc(Cl)c([N+](=O)[O-])c2)CC1 [CBK003165] | 100% | –
COC(=O)C1=COC(C)C2CN3CCC4(NC(=O)c5c4ccc(OC)c5OC)C3CC12 (centres unmarked) [CBK003303] | 107% | –
CN(C(=O)c1ccc(Cl)c(Cl)c1)[C@H]1CCC[C@H]1N1CCCC1 [CBK003411C] | – | viability at 28.5 h, 10 µM [1]: 90%
O=C(N[C@H]1CCCC[C@H]1N1CCCC1)N[C@H]1CCCC[C@H]1N1CCCC1 [CBK003419] | 115% | –
O=C(O)c1cccc(Cn2ccc3c(F)cccc32)c1 [CBK003453] | 95.9% | –
Oc1cc(C(F)(F)F)nc(NCc2ccc3ccccc3c2)n1 [CBK003459] | 92.2% | –
COC(=O)C1(Cc2ccccc2)CN(C(=O)OC(C)(C)C)CCC1=O (centres unmarked) [CBK003486] | 93.2% | –
COc1ccc([N+](=O)[O-])cc1N1CCN(C(=O)OC(C)(C)C)CC1 [CBK003504] | 92.3% | –
CC(C)(C)OC(=O)N1CCN(c2cc(Cl)nc(N)n2)CC1 [CBK003505] | 91.8% | –
CN1CCC(C#N)(c2ccccc2F)CC1 [CBK003511] | – | viability at 28.5 h, 10 µM [1]: 99.3%
COc1ccc(-c2nc(O)cc(C(F)(F)F)n2)cc1 [CBK003515] | 86.3% | –
Cn1c2c(c3ccccc31)C(=O)NCC2 [CBK003517] | 89% | –
COC(=O)c1ccccc1NC(C)=O [CBK003522] | – | viability at 28.5 h, 10 µM [1]: 107%
Cc1cc2nc(NC(=N)N)[nH]c2cc1C [CBK003532] | 93.5% | –
COc1ccc([C@@]23CCC(N)C[C@@H]2N(C)CC3)cc1OC (some centres unmarked) [CBK003576] | 114% | –
OC(COc1cccc2c1CCCC2)CN1CCC(O)(c2ccc(Cl)c(C(F)(F)F)c2)CC1 (centres unmarked) [CBK003581] | 102% | –
O=C(c1ccc(F)cc1)C1CCN(CC(O)COc2cccc3c2CCCC3)CC1 (centres unmarked) [CBK003583] | 101% | –

Source: article PMC12040169 (PLOS Biology, 2025)
